Assay results from US12227501B2, “3-amino-2-[2-(acylamino)pyridin-4-yl]-1,5,6,7-tetrahydro-4h-pyrrolo[3,2-c]pyridin-4-one as CSNK1 inhibitors” (Bayer Aktiengesellschaft, priority 2019, dated 2025).
“And” between values parts separate entries of the source, which are not always exact repeats. Equal values may be shown once. Read-outs that look alike come from different tables or passages of the source.

Assays:
Assay type in all cases: biochemical
[1] = target: human CSNK1D (Homo sapiens (Human), UniProt P48730); assay: CSNK1D Assay (ADP-Glo, 1 μM ATP); conditions: read-out: CSNK1D IC50 [mol/l] (median)
Chain of human CSNK1D (P48730 whole entry): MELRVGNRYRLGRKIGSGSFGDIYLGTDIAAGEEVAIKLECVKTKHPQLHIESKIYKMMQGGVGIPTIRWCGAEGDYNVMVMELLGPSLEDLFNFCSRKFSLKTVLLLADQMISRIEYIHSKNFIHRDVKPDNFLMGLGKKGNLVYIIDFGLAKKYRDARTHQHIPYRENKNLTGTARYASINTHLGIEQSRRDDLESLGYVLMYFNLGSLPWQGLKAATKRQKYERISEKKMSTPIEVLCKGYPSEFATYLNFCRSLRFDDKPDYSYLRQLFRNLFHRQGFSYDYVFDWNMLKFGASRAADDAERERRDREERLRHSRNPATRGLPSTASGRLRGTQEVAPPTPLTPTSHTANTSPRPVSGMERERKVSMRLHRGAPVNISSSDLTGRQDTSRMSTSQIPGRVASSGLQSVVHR
Outline: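 Activity is read as ADP produced, by ADP-Glo luminescence after 1 h steps at 22 °C. The reaction uses 1 μM ATP, a biotinylated peptide and insect-cell-expressed GST–CSNK1D (about 0.5 ng/μL) in pH 7.5 HEPES buffer, with 15 min compound–enzyme preincubation.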

[2] = target: wild-type Epidermal Growth Factor Receptor (EGFR) (Homo sapiens (Human), UniProt P00533); assay: WT-EGFR Kinase Assay (TR-FRET, 2 mM ATP)
Chain of wild-type Epidermal Growth Factor Receptor (EGFR) (P00533 669-1210): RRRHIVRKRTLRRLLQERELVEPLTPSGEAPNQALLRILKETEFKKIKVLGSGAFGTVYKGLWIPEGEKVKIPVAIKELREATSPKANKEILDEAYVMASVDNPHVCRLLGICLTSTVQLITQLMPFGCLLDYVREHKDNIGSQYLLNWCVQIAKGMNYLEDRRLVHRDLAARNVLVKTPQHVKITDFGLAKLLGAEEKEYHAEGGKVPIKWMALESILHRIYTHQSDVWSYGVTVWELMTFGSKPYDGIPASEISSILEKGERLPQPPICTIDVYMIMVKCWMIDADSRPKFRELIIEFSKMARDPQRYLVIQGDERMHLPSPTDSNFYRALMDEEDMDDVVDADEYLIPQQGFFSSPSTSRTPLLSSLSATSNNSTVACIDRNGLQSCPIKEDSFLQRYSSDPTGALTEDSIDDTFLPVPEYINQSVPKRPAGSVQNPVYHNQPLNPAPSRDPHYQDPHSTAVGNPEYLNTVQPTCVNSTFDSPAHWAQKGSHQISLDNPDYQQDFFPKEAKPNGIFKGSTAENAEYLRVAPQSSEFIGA

[3] = target: T1, human CSNK1A1 (Homo sapiens (Human), UniProt P48729); assay: CSNK1A1 Assay 2 (ADP-Glo, 1 μM ATP); conditions: substrate biotin-Ahx-KRRRAL-pS-VASLPGL, read-out: CSNK1A1 Assay 2 IC50 [mol/l] (median)
T1 sequence (P48729 whole entry, the tested form may be a part): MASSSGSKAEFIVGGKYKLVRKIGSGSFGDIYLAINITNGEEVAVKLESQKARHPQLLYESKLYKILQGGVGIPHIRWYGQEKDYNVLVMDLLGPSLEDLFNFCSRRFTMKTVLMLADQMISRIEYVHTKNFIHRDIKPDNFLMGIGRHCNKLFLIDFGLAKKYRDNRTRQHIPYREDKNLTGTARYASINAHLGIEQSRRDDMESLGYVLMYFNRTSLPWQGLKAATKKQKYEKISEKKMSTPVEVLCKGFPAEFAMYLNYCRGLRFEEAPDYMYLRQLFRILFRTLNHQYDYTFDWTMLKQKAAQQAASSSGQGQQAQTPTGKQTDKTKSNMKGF
Outline: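 Full-length human CSNK1A1 as an N-terminal GST fusion (baculovirus/insect cells) with biotinylated peptide substrate biotin-Ahx-KRRRAL-pS-VASLPGL and 1 μM ATP, in HEPES pH 7.5 buffer. Compounds were pre-incubated with enzyme (~0.0375 ng/μL) for 15 min at 22 °C. Generated ADP was read by ADP-Glo luminescence as the activity measure.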

[4] = target: T1, human CSNK1A1; assay: CSNK1A1 High ATP Assay (ADP-Glo, 1 mM ATP); conditions: read-out: CSNK1A1 high ATP assay IC50 [mol/l] (median)
Outline: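 Kinase activity taken as ADP generated, quantified by ADP-Glo luminescence after 1 h ATP depletion and 1 h detection at 22 °C. Enzyme is GST–full-length human CSNK1A1 (insect cell-expressed), pre-bound to compound for 15 min, with phosphopeptide substrate and 1 mM ATP.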

[5] = read-out: EGFR Wildtyp- 2 mM ATP IC50 [mol/l] (median)
[6] = EGFR Wildtyp- 2 mM ATP IC50 [mol/l] (median)

With `CN1CCc2[nH]c(-c3ccnc(NC(=O)Cc4ccc(C(F)F)cc4)c3)c(Nc3ccccc3)c2C1=O` [Example 78, N-[4-(3-anilino-5-methyl-4-oxo-4,5,6,7-tetrahydro-1H-pyrrolo[3,2-c]pyridin-2-yl)pyridin-2-yl]-2-[4-(difluoromethyl)phenyl]acetamide] the IC50 [1] was 7.93 nM, the IC50 [2, 5] was 3090 nM and the IC50 [3] was 2.95 nM. For the same compound, the IC50 [4] was 95.5 nM.
For `CN1CCc2[nH]c(-c3ccnc(NC(=O)Cc4c(F)cc(F)cc4F)c3)c(Nc3ccccc3)c2C1=O` [Example 164, N-[4-(3-anilino-5-methyl-4-oxo-4,5,6,7-tetrahydro-1H-pyrrolo[3,2-c]pyridin-2-yl)pyridin-2-yl]-2-(2,4,6-trifluorophenyl)acetamide], the IC50 [1] was 3.08 nM, the IC50 [2, 5] was 419 nM and the IC50 [3] was 3.83 nM. It also gave an IC50 [4] of 149 nM.
For `CC1Cc2[nH]c(-c3ccnc(NC(=O)Cc4ccc(F)cc4)c3)c(Nc3ccccc3F)c2C(=O)N1C` (single isomer, unassigned; (-)) [Example 102, (−)-N-{4-[3-(2-fluoroanilino)-5,6-dimethyl-4-oxo-4,5,6,7-tetrahydro-1H-pyrrolo[3,2-c]pyridin-2-yl]pyridin-2-yl}-2-(4-fluorophenyl)acetamide], the IC50 [1] was 7.21 nM, the IC50 [2, 6] was 2330 nM and the IC50 [3] was 3.6 nM. For the same compound, the IC50 [4] was 51 nM.
With `O=C1NC2(CCC2)Cc2[nH]c(-c3ccnc(NC(=O)C(CC(F)F)c4ccc(F)cc4)c3)c(Nc3ccccc3)c21` (single isomer, unassigned; (+)) [Example 55, (+)-N-[4-(3′-anilino-4′-oxo-1′,4′,5′,7′-tetrahydrospiro[cyclobutane-1,6′-pyrrolo[3,2-c]pyridin]-2′-yl)pyridin-2-yl]-4,4-difluoro-2-(4-fluorophenyl)butanamide] the IC50 [1] was 4.38 nM, the IC50 [2, 6] was 1170 nM and the IC50 [3] was 4.25 nM. The IC50 [4] was 9.1 nM.
In the case of `CN1CCc2[nH]c(-c3ccnc(NC(=O)C(CO)c4ccc(F)cc4)c3)c(Nc3ccccc3)c2C1=O` (single isomer, unassigned) [Example 19, N-[4-(3-anilino-5-methyl-4-oxo-4,5,6,7-tetrahydro-1H-pyrrolo[3,2-c]pyridin-2-yl)pyridin-2-yl]-2-(4-fluorophenyl)-3-hydroxypropanamide], the IC50 [1] is reported as 6.55 nM, the IC50 [2, 6] is reported as > 20 µM (5×) and 16.1 µM and the IC50 [3] is reported as 1.7 nM. It also gave an IC50 [4] of 10.6 nM.
`CCN1CCc2[nH]c(-c3ccnc(NC(=O)C(C)c4ccc(F)cc4)c3)c(Nc3ccccc3)c2C1=O` (stereo not drawn) [Example 21, N-[4-(3-anilino-5-ethyl-4-oxo-4,5,6,7-tetrahydro-1H-pyrrolo[3,2-c]pyridin-2-yl)pyridin-2-yl]-2-(4-fluorophenyl)propanamide] was tested, and the IC50 [1] was 21.5 nM, the IC50 [2, 5] was greater than 20000 nM and the IC50 [3] was 7.67 nM. It also gave an IC50 [4] of 344 nM.
For `CC(C)(O)CN1CCc2[nH]c(-c3ccnc(NC(=O)Cc4ccc(F)cc4)c3)c(Nc3ccccc3)c2C1=O` [Example 23, N-{4-[3-anilino-5-(2-hydroxy-2-methylpropyl)-4-oxo-4,5,6,7-tetrahydro-1H-pyrrolo[3,2-c]pyridin-2-yl]pyridin-2-yl}-2-(4-fluorophenyl)acetamide], the IC50 [1] was 36.8 nM, the IC50 [2, 5] was 7280 nM and the IC50 [3] was 26.7 nM. For the same compound, the IC50 [4] was 2620 nM.
`CN1CCc2[nH]c(-c3ccnc(NC(=O)Cc4ccc(S(C)(=O)=O)cc4)c3)c(Nc3ccccc3)c2C1=O` [Example 65, N-[4-(3-anilino-5-methyl-4-oxo-4,5,6,7-tetrahydro-1H-pyrrolo[3,2-c]pyridin-2-yl)pyridin-2-yl]-2-[4-(methanesulfonyl)phenyl]acetamide] was tested, and the IC50 [1] was 5.46 nM, the IC50 [2, 5] was 490 nM and the IC50 [3] was 1.51 nM. The IC50 [4] was 17.5 nM.
`CN1CCc2[nH]c(-c3ccnc(NC(=O)Cc4ccc(C(F)(F)F)cc4)c3)c(Nc3ccccc3)c2C1=O` [Example 66, N-[4-(3-anilino-5-methyl-4-oxo-4,5,6,7-tetrahydro-1H-pyrrolo[3,2-c]pyridin-2-yl)pyridin-2-yl]-2-[4-(trifluoromethyl)phenyl]acetamide] was tested, and the IC50 [1] was 5.57 nM, the IC50 [2, 5] was 8550 nM and the IC50 [3] was 2.75 nM. For the same compound, the IC50 [4] was 33.5 nM.
